According to PubChem BioAssay AID1224900:

Test system: MDA-MB-231 viability, PrestoBlue fluorescence
Test: antiproliferative effect, triple-negative breast cancer line – cell-based, MDA-MB-231, mTOR inhibitor project, dose response (AID 1224900)

For CCOC(Cn1nc(-c2ccc3oc(N)nc3c2)c2c(N)ncnc21)OCC, which EC50 is on record?
Its EC50 is 72 nM.
